Legend:
NIH3T3 cells = test: [Ca2+]i measurement with fura-2; assay type: cell-based, mouse; conditions: NIH 3T3; 25 μM
Method: (§1) Neutrophils and HL60, and differentiated HL60, U937, NIH3T3, and PC12 cells were loaded with fura-2 and then stimulated with 25 μM of m-3M3FBS. Changes in the 340 nm/380 nm excitation ratio were monitored, and converted to [Ca^2+]i levels. Data are presented as means ±S. E. M. of three independent experiments.
U937 (human histiocytic lymphoma cells), HL60 (human promyelocytic leukemia cells), NIH3T3 (NIH Swiss mouse embryo fibroblasts), and PC12 (rat adrenal pheochromocytoma cells) were obtained from the American Type Culture Collection (Rockville, Md.) and HeLa (human adenocarcinoma cells) Tet-off cells were purchased from Clontech (Palo Alto, Calif., U.S.A.) and maintained as recommended. The cells were maintained at about 1×10^6 cells/ml under standard incubator conditions (humidified atmosphere, 95% air, 5% CO2, 37° C.). […]
Freshly prepared human neutrophils were incubated in serum free RPMI 1640 medium with 3 μM of fura-2/AM at 37° C. for 30 min with continuous stirring. […] Changes in the fluorescence ratio were measured at an emission wavelength of 500 nm for dual excitation wavelengths at 340 nm and 380 nm. The calibration of the fluorescence ratio versus [Ca^2+]i was performed as described by Grynkiewicz (Grynkiewicz et al., 1985).

U937 cells = test: [Ca2+]i measurement with fura-2; assay type: cell-based, human; conditions: 25 μM
Method: as §1
(§2) U937 (human histiocytic lymphoma cells), HL60 (human promyelocytic leukemia cells), NIH3T3 (NIH Swiss mouse embryo fibroblasts), and PC12 (rat adrenal pheochromocytoma cells) were obtained from the American Type Culture Collection (Rockville, Md.) and HeLa (human adenocarcinoma cells) Tet-off cells were purchased from Clontech (Palo Alto, Calif., U.S.A.) and maintained as recommended. The cells were maintained at about 1×10^6 cells/ml under standard incubator conditions (humidified atmosphere, 95% air, 5% CO2, 37° C.). HL60 cells were induced to differentiate into the granulocyte phenotype by adding dimethylsulfoxide (DMSO) (final concentration 1.25% v/v) for 5 days, as has been described before (Ithoh et al., 1998).
(§3) Freshly prepared human neutrophils were incubated in serum free RPMI 1640 medium with 3 μM of fura-2/AM at 37° C. for 30 min with continuous stirring. After washing with serum free RPMI 1640 medium, the cells were suspended in serum free RPMI containing 250 μM of sulfinpyrazone to prevent dye leakage. About 2×10^6 cells were suspended in Ca^2+ free Locke's solution (158.4 mM NaCl, 5.6 mM KCl, 1.2 mM MgCl2, 5 mM HEPES pH 7.3, 10 mM glucose, and 0.2 mM EGTA) for each measurement. Changes in the fluorescence ratio were measured at an emission wavelength of 500 nm for dual excitation wavelengths at 340 nm and 380 nm. The calibration of the fluorescence ratio versus [Ca^2+]i was performed as described by Grynkiewicz (Grynkiewicz et al., 1985).

HL60 cells = test: [Ca2+]i measurement with fura-2; assay type: cell-based, human; conditions: 25 μM
Method: as §1, §2, §3

[1] = test system: differentiated HL60 cells; test: [Ca2+]i measurement with fura-2; assay type: cell-based, human; conditions: 25 μM
Method: as §1, §2, §3

PI3-kinase = test: Akt phosphorylation in U937 cells; assay type: cell-based, human; conditions: 50 μM, data not shown
Description: The result led us to check whether the compound act specifically on PLC or act on other enzymes that recognize phosphoinositols as substrates such as phosphoinositide-3-kinase (PI3-kinase). For this, we tested the effect of m-3M3FBS on the Akt phosphorylation that is dependent on the PI3-kinase in U937 cells. […] The result support our notion that m-3M3FBS acts specifically on PLC.

Q: What does the source list for `Cc1cc(C)c(S(=O)(=O)Nc2cccc(C(F)(F)F)c2)c(C)c1` [m-3M3FBS, 2,4,6-Trimethyl-N-(meta 3-trifluoromethyl-phenyl)-benzenesulfonamide]?
A: calcium increase (NIH3T3 cells): induced calcium increase; calcium increase (U937 cells): induced calcium increase; calcium increase (HL60 cells): induced calcium increase; calcium increase [1]: induced calcium increase; phosphorylation level of Akt (PI3-kinase): couldn't significantly increase
